The values that follow are results of earlier work, collected in patent publication US11026907B2, “Azelaic acid gel, preparation method and application thereof” (CHENGDU JOY YOUNG BIOTECHNOLOGY CO., LTD., priority 2018, dated 2021).

Where two headings read alike, the source gives them in different places.

For the compound `O=C(O)CCCCCCCC(=O)O` [Azelaic acid], the Solubility entry (in cold water, ether and benzene) was “slightly soluble”; the Solubility result (in hot water, alcohol and some polyols) was “soluble”.
